Assay results as given in patent publication US20260124223A1, “CANCER IMMUNOTHERAPIES” (Northwestern University, priority 2022, published 2026).
Several values for one entry are separate records, joined by “and”; a condition that tells them apart may be missing. Identical values can stand only once. Like-named read-outs stand apart in the source and are kept apart here.

Key:
[1] = mouse, in vivo
Method: C57BL/6 mice were employed for sonication experiments in which they were anesthetized with ketamine/xylazine cocktail intraperitoneally (ketamine 100 mg/kg, xylazine 10 mg/kg).
Determination of the concentration of nivolumab in brain from C57BL/6 mice. Non-tumor bearing C57BL/6 mice were used for this experiment. […] Nivolumab ELISA kit (ab237651, Abcam) was employed to determine nivolumab concentrations in the brain and blood. Mice were anesthetized with ketamine/xylazine cocktail and treated with artificial tears once fully anesthetized. Next, mice were treated with nivolumab through retro-orbital route. The dose used for mice was calculated based on allometric scaling which considers the animal equivalent dose based on body surface area converted from the human dose of 3 mg/kg of nivolumab (Nair, A. B. et al., J Basic Clin Pharm 7, 27-31 (2016)). After treatment with nivolumab, mice were placed in the US transducer holder for sonication as described above. Intravenous NaFI (Sigma-Aldrich) previously dissolved in PBS was administered immediately after sonication at a dose of 20 mg/kg in 100 μL. 1 and 4 hours after sonication, mice were euthanized using a CO2 chamber and brains were harvested and placed in PBS. […] Absorbance of samples (set to 450 nm) was read in Cytation 5 multi-mode reader (Biotek). […]

recurrent GBM patients [2] = assay: Multiplex immunofluorescence of FcγRIIIA on TAMs, pre-DOX and during-DOX GBM samples; type: in vivo, human; settings: DOX+aPD-1 with concomitant LIPU/MB, vs tissue before treatment, 4 patients
From the text: Multiplex immunofluorescence staining/cellular identification and phenotyping. The multiplex panel included the following unconjugated antibodies: GFAP (glioma cells), CD11c (antigen presenting cells), CD68 (pan monocyte/macrophage), CD163 (macrophage scavenger receptor), FcγRIIIA (Receptor binding the Fc region of IgG, CD16A). All antibodies were validated using conventional immunofluorescence (IF) staining in conjunction with the corresponding fluorophore and the spectral 4′,6-diamidino-2-pheynlindole (DAPI; ThermoFisher Scientific) counterstain. For optimal concentration and best signal/noise ratio all antibodies were tested at three different dilutions, starting with the manufacturer-recommended dilution (MRD), then MRD/2 and MRD/4. Secondary Alexa fluorophore 555 (ThermoFisher Scientific) and Alexa fluorophore 647 (ThermoFisher Scientific) were used at 1/200 and 1/400 dilutions respectively. […]
Slides are automatically scanned using the Lunaphore COMET™ with fluorescent high-power field scan (20× magnification microscope). […] The OME.TIFF images ware analyzed in Visiopharm software for immune populations' configuration and quantification.
All digitized images were analyzed using the Visiopharm software platform (Hørsholm, Denmark). […]

recurrent GBM patients [3] = assay: Multiplex immunofluorescence of pre-treatment and on-treatment human GBM samples; settings: tumors exposed to DOX vs before DOX
CT2A = assay: H-2Kb expression in CT2A cells by flow cytometry; type: cell-based, mouse; settings: similar DOX concentration range, compared to no treatment
HMC3 = assay: FCGR3A / FcγRIIIA expression in HMC3 cells (qRT-PCR, flow cytometry); type: cell-based, human; settings: DOX 5 hours, fresh media 72 hours
Method: (§1) Flow cytometry of PDX cell lines and HMC3 cells. PDX cell lines were kindly gifted. HMC3 cells were acquired from ATCC. GBM6, GBM63 and HMC3 cells were seeded on 6-well plates for treatment with increasing concentrations of DOX hydrochloride (D1515, Sigma Aldrich), IFN-γ (300-02, Peprotech) or 50 μM of TMZ (Accord). PDX and HMC3 cells were treated for 5 hours followed by 3 washes with PBS and cultured afterwards with Dulbecco's modified Eagle's medium (Corning) supplemented with 10% FBS (Hyclone) and 1% penicillin/streptomycin (Corning). 72 hours after treatment, PDX cells were harvested using Accutase cell detachment solution (Corning) and were stained initially with eBioscience Fixable Viability Dye eFluor 780 (Thermo Fisher) at 1:1000 dilution. Staining with HLA ABC AF-647 (311414) and HLA-DR BV421 (307636) was done for PDX cells. IFN-γ AF-700 (502520), HLA ABC FITC (311404), PD-L1 Pe-Cy7 (374506). All antibodies for this experiment were from Biolegend. Data was acquired using BD FACSymphony Flow Cytometer.

GL261-bearing mice [4] = assay: Immunophenotyping of GL261-bearing mice treated with increasing doses of liposomal DOX with or without US/MB; type: in vivo, mouse; settings: 1 and 2 mg/kg; 5 mg/kg without US/MB
Method: (§2) Ultrasound-mediated BBB opening in mouse models.
(§3) After injection of glioma cells, the incision was closed using 9 mm stainless steel wound clips. On day 7 and 14 after IC implantation of glioma cell lines, mice were treated with liposomal DOX obtained from the pharmacy of Northwestern Memorial Hospital. On day 7, 10, 14, and 17 after IC injection of glioma cells, mice were treated with either […] of anti-mouse PD-1 (CD279) BE0146 (BioXcell) or rat IgG2a isotype control BE0089 (BioXcell).

GBM6 = assay: Flow cytometry of antigen-presenting molecules in PDX cell line GBM6; type: cell-based, human; settings: 5 hours exposure, 72 hours drug-free, relative to no treatment
Method: as §1

GL261 = assay: H-2Kb expression in GL261 cells by flow cytometry; type: cell-based, mouse; settings: similar DOX concentration range, compared to no treatment
GL261 tumor-bearing mice = settings: LIPU/MB+IC+DOX
Method: Cell culture. […] Both cell lines were cultured in Dulbecco's modified Eagle's medium (Gibco) supplemented with 10% fetal bovine serum (Gibco), and 1% penicillin/streptomycin (Gibco) in 5% CO2 incubators at 37° C. […] QPP4 cells were maintained in Dulbecco's modified Eagle's medium/F-12 (Gibco) supplemented with B-27 (Gibco), recombinant epidermal growth factor (EGF, 20 ng/ml, PeproTech), and recombinant basic fibroblast growth factor (bFGF, 20 ng/ml, PeproTech).
Animal Experiments. […] All murine cell lines used for this study were routinely tested for mycoplasma and were confirmed negative before intracranial orthotopic injection. To perform intracranial injection of syngeneic murine glioma cell lines, mice were anesthetized with ketamine/xylazine cocktail. Artificial tears were used to prevent eye drying and protect the eye. […] Mice were monitored daily and were euthanized when they approached the endpoint (weight loss is >20% of pre-treatment body weight or loss of mobility or severe neurological disabilities such as seizure, circular motion, etc.) as described in the IACUC protocol.
LIPU/MB. […] Sonications were performed for 120 seconds using a 25,000-cycle burst at a 1 Hz pulse repetition frequency and an acoustic pressure of 0.3 MPa as measured in water. After sonications, mice were moved to a clean cage, placed upon a heating pad, and monitored until they recovered from anesthesia.

[5] = DOX concentration in blood, tumor and peritumoral brain tissue of GBM patients (LC/MS); type: in vivo, human; settings: for concentration at 48 h: human, intravenous, GBM patients, 48 hours after liposomal DOX with US/MB
Method: (§4) Patients received additional treatment cycles with sonications in an outpatient setting in which the US device was activated by percutaneous access with a single-use transdermal needle concomitantly with the injection of 10 μL/kg of IV microbubbles (DEFINITY, Lantheus, Billerica, USA) and 200 mg of pembrolizumab and 30 mg of liposomal DOX.
Determination of the DOX concentration in blood, tumor and peritumoral brain tissue. Two GBM patients undergoing surgery for resection of tumor with implantation of the Sonocloud-9 US device were studied for this analysis. […] Sonicated and non-sonicated peritumoral brain samples were identified taking into account their location relative to the sonication field of the US device. Non-sonicated peritumoral brain samples were acquired first with the use of a new set of surgical instruments for each sample. Every peritumoral brain tissue was washed with saline solution to remove blood. These samples were sectioned into 30 mg pieces and were flash-frozen for further quantification of DOX levels. DOX was quantified in tumor, peritumoral, and plasma using LC/MS (6500 QTRAP AB Sciex equipped with a SIL-20AC XR HPLC, Shimadzu Scientific Instruments).

HMC3 cells = assay: Flow cytometry of IFNγ, HLA ABC and PD-L1 in HMC3 cells; type: cell-based, human; settings: 5-hour pulse, 72 hours, specific DOX concentrations
Method: as §1

GBM63 = assay: Flow cytometry of antigen-presenting molecules in PDX cell line GBM63; type: cell-based, human; settings: 5 hours exposure, 72 hours drug-free
Method: as §1

CT2A-bearing mice = assay: Survival of CT2A-bearing mice treated with aPD-1, liposomal DOX, US/MB; type: in vivo, mouse
Method: as §2
(§5) Cell lines and implantable syngeneic murine glioma models for survival and immunophenotyping studies. Murine GL261 cell line was acquired from the National Institutes of Health. CT2A cell line was acquired from Millipore. GL261 and CT2A were cultured in Dulbecco's modified Eagle's medium (Corning) supplemented with 10% FBS (Hyclone) and 1% penicillin/streptomycin (Corning) at 37° C. in incubators with humified atmosphere of 5% CO2 and 95% air.
as §3

GL261-bearing mice [6] = assay: Survival of GL261-bearing mice treated with liposomal DOX, aPD-1, US/MB; type: in vivo, mouse
Method: as §2, §5, §3

[7] = Pembrolizumab concentration in plasma, glioma and peritumoral brain of GBM patients (ELISA); type: in vivo, human
Method: as §4
Determination of the concentration of pembrolizumab in human glioma and peritumoral brain tissue Two GBM patients undergoing surgery for resection of tumor with implantation of the Sonocloud-9 US device were studied for this analysis. Pembrolizumab ELISA kit (ab237652, Abcam) was employed to determine pembrolizumab concentrations. After surgical resection, all samples were weighed. […] The rest of the experiment was done following manufacturer's kit protocol.

[8] = tested on: brain metastases from melanoma; assay: Tumor volume in a melanoma brain metastasis patient, SonoCloud-1 (NCT04021420); type: in vivo, human
From the text: Analysis of SoniMel tumor volume of a brain metastatic patient. This patient was part of an ongoing clinical trial (NCT04021420) evaluating the combination of the immune checkpoint antibodies, ipilimumab and nivolumab, with BBB disruption employing the SC1 US device. The zone targeted by the skull implanted SC1 US emitter was modeled with a cylindrical region of interest (ROI) with a 10-mm diameter and 55-mm length. This ROI covered a part of the left-hemisphere tumoral mass and a part of its margin. The patient received administration every three weeks of 1 mg/kg of nivolumab (Brystol Myers Squibb) during 30 minutes of infusion and 3 mg/kg of ipilimumab (Brystol Myers Squibb) during 90 minutes of infusion prior to sonication. The SC1 US device was activated in combination with IV injection of microbubbles (0.1 mL/kg, SonoVue, Bracco) for a duration of 270 seconds at an acoustic pressure of 0.78 MPa, similar to the parameters used in a recent clinical trial in patients with recurrent GBM (Idbaih, A., et al., Clin Cancer Res 25, 3793-3801 (2019)). The evolution of the tumor volumes was evaluated for both sonicated and non-sonicated tumor masses using a semiautomatic active contour segmentation method (ITK Snap) (Yushkevich, P. A., et al., Neuroimage 31, 1116-1128 (2006)) using contrast-enhanced gadolinium T1w MR images with a threshold set at 1.25 times the median brain intensity. […]

nivolumab: human IgG4 antibody that binds the PD-1 receptor
nivolumab concentration in the plasma [1]: similar

COc1cccc2c1C(=O)c1c(O)c3c(c(O)c1C2=O)C[C@@](O)(C(=O)CO)C[C@@H]3O[C@H]1C[C@H](N)[C@H](O)[C@H](C)O1 [DOX, Doxorubicin]
frequency of FcγRIIIA+ CD68+ and CD11c+ TAMs (recurrent GBM patients [2]): increase in the frequency
TMEM119+ cells expressing HLA I (recurrent GBM patients [3]; P=0.0092): increased number
CD163+ cells expressing HLA I (recurrent GBM patients [3]; P=0.0712): increased number
H-2Kb expression (CT2A): upregulated
FCGR3A expression, times higher than in untreated microglia (HMC3): ~16 times
IFN-γ by glioma-associated myeloid cells (GL261-bearing mice [4]): no other doses of DOX nor the 5 mg/kg of dose delivered in the absence of US/MB elicited IFN-γ
DOX concentration range that upregulated HLA ABC and HLA DR expression (GBM6): 0.15 to 1.2 M
H-2Kb expression (GL261): upregulated
long-term survivors (GL261 tumor-bearing mice): 16.7%
fold increase in DOX concentration, sonicated relative to non-sonicated peritumoral brain samples ([5]; 2 GBM patients, 48 hours, 95% CI of mean 1.406-2.659): 2.033 fold
concentration at 48 h ([5]; plasma, read-out: DOX plasma levels): 8230 ng/mL and 14.2 µM
concentration at 48 h ([5]; tumor, read-out: DOX tumor concentrations): 146 ng/g to 2290 ng/g and 251 nM to 3.94 µM
expression of HLA ABC (HMC3 cells): promoted
expression of PD-L1 (HMC3 cells): promoted
production of IFNγ (HMC3 cells): promoted
DOX concentration range that upregulated HLA ABC and HLA-DR expression (GBM63): 0.15 to 0.6 M
survival in Cd8−/− and Cd8+/+ mice (CT2A-bearing mice; DOX plus anti-PD-1 antibody with US/MB, P=0.0452): survival benefit was only observed in mice that had intact immunity
long-term survival percentage (CT2A-bearing mice; anti-PD-1 antibody added to DOX plus US/MB): 80%
percentage of CD4 IFN-γ+ TNF-α+ T cells (GL261-bearing mice [6]; DOX alone vs control, P=0.04): higher percentage
long-term survivors (GL261-bearing mice [6]; GL261, anti-PD-1 antibody added to DOX plus US/MB, vs DOX plus US/MB): same percentage of long-term survivors

pembrolizumab: anti-PD-1 antibody
fold increase in pembrolizumab concentration, sonicated vs non-sonicated peritumoral brain regions ([7]; 2 GBM patients, SonoCloud-9): 2.076 fold
anti-PD-1 antibody concentration in the serum ([7]; two GBM patients, 48 hours after treatment): 39.450 µg/mL and 45.099 µg/mL

ipilimumab: IgG1 anti-CTLA-4 antibody, given with nivolumab
tumor mass targeted by the SonoCloud-1 (sonicated) ([8]; ipilimumab 3 mg/kg and nivolumab 1 mg/kg prior to sonication): began to shrink after the second sonication
non-sonicated tumor mass ([8]; ipilimumab 3 mg/kg and nivolumab 1 mg/kg, until GammaKnife on day 130): continued to grow
